Measured values: patent US20240300927A1, “AMIDES AS CBL-B INHIBITORS” (Genentech, Inc., priority 2021, published 2024)

Tests used:
[1] = molecular target: c-Cbl (Homo sapiens (Human), UniProt P22681); test: C-cbl LCK Ub TR-FRET assay (C-cbl Lck HTRF); assay type: biochemical
Protocol: (§1) Compounds were 3-fold serially diluted in DMSO in a 384-well polypropylene plate (#P-05525-BC; Labcyte) to generate a source plate with 10 concentrations of each compound, top concentration=2 mM. 80 nL of DMSO or compounds were transferred to each well of a black 384-well ProxiPlate (#6008260; PerkinElmer) using a Labcyte Echo. 1× assay buffer (50 mM HEPES pH7.0, 100 mM NaCl, 0.01% BSA, 0.01% Triton-X100, 1 mM DTT), 2× enzyme solution (16 nM Biotin-Cbl-b or 12 nM Biotin-c-Cbl in 1× assay buffer), 2× kinase mixture (120 nM His-LCK, 1 mM ATP, 10 mM MgCl2 in assay buffer) and 2.33× detection mixture (4.66× solution 1: 163 nM Anti-HA-D2 antibody (#610HADAB; PerkinElmer), 27.96 nM Streptavidin-EU (#AD0062; PerkinElmer), 1.398 mM EDTA in 1× assay buffer+4.66× solution 2: 2.796 μM UBE2D2/Methylated-HA-Ubiquitin thioester adduct (BostonBiochem) in 1× assay buffer) were prepared. 4 μL of 2× enzyme solution was added to each well containing compound, briefly centrifuged to mix, and incubated for 60 min at room temperature. 4 μL of 2× kinase mixture was added, briefly centrifuged to mix, and incubated for 90 min. at room temperature. 6 μL of detection mixture was added to all wells and briefly centrifuged before incubating for 20 min at room temperature. Plates were read for TR-FRET using an Envision at excitation 340 nm, emission at 615 and 665 nm, 4 flashes per well. IC50 was generated using no LCK as the low control and DMSO as the high control.
(§2) Cbl-b Lck HTRF data in Table 3 is measured according to Example 25 herein; C-cbl Lck HTRF data is measured according to Example 25 herein.
(§3) SPR and the LCK biochemical assay are orthogonal assays: SPR is a protein binding assay while the LCK assay is an enzyme activity assay. SPR measures compound binding affinity to CBL-B/C-CBL, whereas LCK assay measures compound inhibition of CBL-B/C-CBL ubiquitin transfer activity.

[2] = molecular target: Cbl-b (Homo sapiens (Human), UniProt Q13191); test: Cbl-b LCK Ub TR-FRET assay (Cbl-b Lck HTRF); assay type: biochemical; settings: for (fold-selectivity): Cbl-b and C-Cbl selectivity, Lck HTRF; for IC50: read-out: Cbl-b Lck HTRF IC50
Protocol: as §1, §2, §3

Sequence of c-Cbl (P22681 47-435): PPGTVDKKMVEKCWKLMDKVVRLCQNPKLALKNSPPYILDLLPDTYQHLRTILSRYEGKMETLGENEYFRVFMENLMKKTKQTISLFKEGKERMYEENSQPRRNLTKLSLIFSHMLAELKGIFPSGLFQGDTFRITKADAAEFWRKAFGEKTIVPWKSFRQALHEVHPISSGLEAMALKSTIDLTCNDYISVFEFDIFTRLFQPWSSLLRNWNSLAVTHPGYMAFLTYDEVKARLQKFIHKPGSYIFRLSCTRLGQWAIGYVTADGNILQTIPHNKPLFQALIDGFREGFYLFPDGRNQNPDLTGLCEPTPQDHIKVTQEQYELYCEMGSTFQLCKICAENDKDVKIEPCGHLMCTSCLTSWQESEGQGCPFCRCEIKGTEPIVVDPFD
Sequence of Cbl-b (Q13191 40-426): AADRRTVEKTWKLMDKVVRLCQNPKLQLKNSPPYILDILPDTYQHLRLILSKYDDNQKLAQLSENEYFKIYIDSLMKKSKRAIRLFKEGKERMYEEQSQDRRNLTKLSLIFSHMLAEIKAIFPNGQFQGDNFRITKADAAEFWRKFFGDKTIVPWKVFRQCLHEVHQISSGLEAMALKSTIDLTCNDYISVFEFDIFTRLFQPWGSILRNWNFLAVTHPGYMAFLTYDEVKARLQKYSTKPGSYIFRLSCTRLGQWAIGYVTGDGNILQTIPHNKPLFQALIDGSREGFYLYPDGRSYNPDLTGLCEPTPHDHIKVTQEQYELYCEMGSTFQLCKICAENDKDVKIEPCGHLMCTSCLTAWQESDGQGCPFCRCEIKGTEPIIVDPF

Structure (SMILES) | IC50 [1] [nM] | (fold-selectivity) [2] | IC50 [2] [nM]
Cn1cnnc1[C@H](F)[C@](C)(F)c1cccc(NC(=O)c2cc(CN3CCC4(CC4)C3)nc(C3CC3)n2)c1 [Compound 39, 6-(5-azaspiro[2.4]heptan-5-ylmethyl)-2-cyclopropyl-N-(3-((1S,2R)-1,2-difluoro-1-(4-methyl-4H-1,2,4-triazol-3-yl)propan-2-yl)phenyl)pyrimidine-4-carboxamide] | 340 | (1.9x) | 180
Cn1cnnc1[C@@H](F)[C@@]1(c2cccc(NC(=O)c3cccc(C(F)(F)F)n3)c2)CCO1 [Compound 502, N-(3-((S)-2-((R)-fluoro(4-methyl-4H-1,2,4-triazol-3-yl)methyl)oxetan-2-yl)phenyl)-6-(trifluoromethyl)picolinamide] | 20000 | (1.0x) | 20000
C[C@@H](c1cc(C(=O)Nc2cccc(C3([C@@H](F)c4nncn4C)COC3)c2)nc(C2CC2)c1)N1CC(C)(F)C1 [Compound 112, 6-cyclopropyl-N-(3-(3-((R)-fluoro(4-methyl-4H-1,2,4-triazol-3-yl)methyl)oxetan-3-yl)phenyl)-4-((S)-1-(3-fluoro-3-methylazetidin-1-yl)ethyl)picolinamide] | 210 | (0.94x) | 230
Cn1cnnc1[C@@H](F)[C@](C)(F)c1cccc(NC(=O)c2cc(CN3CCC4(CC4)C3)nc(C3CC3)n2)c1 [Compound 42, 6-(5-azaspiro[2.4]heptan-5-ylmethyl)-2-cyclopropyl-N-(3-((1R,2R)-1,2-difluoro-1-(4-methyl-4H-1,2,4-triazol-3-yl)propan-2-yl)phenyl)pyrimidine-4-carboxamide] | 270 | (1.4x) | 190
C[C@H](c1cc(C(=O)Nc2cccc(C3([C@H](F)c4nncn4C)COC3)c2)nc(C2CC2)c1)N1CC(C)(F)C1 [Compound 115, 6-cyclopropyl-N-(3-(3-((S)-fluoro(4-methyl-4H-1,2,4-triazol-3-yl)methyl)oxetan-3-yl)phenyl)-4-((R)-1-(3-fluoro-3-methylazetidin-1-yl)ethyl)picolinamide] | 56 | (1.1x) | 50
Cn1cnnc1C[C@]1(c2cccc(NC(=O)c3cccc(C(F)(F)F)n3)c2)C[C@H](F)C1 [Compound 18, N-(3-((1R,3S)-3-fluoro-1-((4-methyl-4H-1,2,4-triazol-3-yl)methyl)cyclobutyl)phenyl)-6-(trifluoromethyl)picolinamide] | 280 | (1.1x) | 260
Cn1cnnc1[C@H](F)[C@]1(c2cccc(NC(=O)c3cccc(C(F)(F)F)n3)c2)CCO1 [Compound 503, N-(3-((R)-2-((S)-fluoro(4-methyl-4H-1,2,4-triazol-3-yl)methyl)oxetan-2-yl)phenyl)-6-(trifluoromethyl)picolinamide] | 17000 | (0.85x) | 20000
Cn1cnnc1CC1(c2cccc(NC(=O)c3cc(CN4CCC5(CC5)C4)cc(C(F)(F)F)n3)c2)COC1 [Compound 98, 4-((5-azaspiro[2.4]heptan-5-yl)methyl)-N-(3-(3-((4-methyl-4H-1,2,4-triazol-3-yl)methyl)oxetan-3-yl)phenyl)-6-(trifluoromethyl)picolinamide] | 78 | (1.8x) | 44
Cn1cnnc1[C@@H](F)[C@]1(c2cccc(NC(=O)c3cccc(C(F)(F)F)n3)c2)CCO1 [Compound 504, N-(3-((R)-2-((R)-fluoro(4-methyl-4H-1,2,4-triazol-3-yl)methyl)oxetan-2-yl)phenyl)-6-(trifluoromethyl)picolinamide] | 8700 | (0.55x) | 16000
Cn1cnnc1[C@H](F)[C@@](C)(F)c1cccc(NC(=O)c2cc(CN3CCC4(CC4)C3)cc(C3CC3)n2)c1 [Compound 36, 4-(5-azaspiro[2.4]heptan-5-ylmethyl)-6-cyclopropyl-N-(3-((1S,2S)-1,2-difluoro-1-(4-methyl-4H-1,2,4-triazol-3-yl)propan-2-yl)phenyl)picolinamide] | 240 | (1.8x) | 140
Cn1cnnc1[C@@H](F)C(C)(F)c1cccc(NC(=O)c2cc(CN3CC(C)(F)C3)nc(C3CC3)n2)c1 (stereo in doubt) [Compound 45, 2-cyclopropyl-N-(3-((1R,2S)-1,2-difluoro-1-(4-methyl-4H-1,2,4-triazol-3-yl)propan-2-yl)phenyl)-6-((3-fluoro-3-methylazetidin-1-yl)methyl)pyrimidine-4-carboxamide] | 16000 | (1.4x) | 12000
Cn1cnnc1CC1(c2cccc(NC(=O)c3cc(C(CC4CC4)N4CCC5(CC5)C4)cc(C(F)(F)F)n3)c2)COC1 (stereo not drawn) [Compound 505, 4-(2-cyclopropyl-1-(5-azaspiro[2.4]heptan-5-yl)ethyl)-N-(3-(3-((4-methyl-4H-1,2,4-triazol-3-yl)methyl)oxetan-3-yl)phenyl)-6-(trifluoromethyl)picolinamide] | 39 | (1.5x) | 26
Cn1cnnc1CC1(c2cccc(NC(=O)c3cc(CN4CC(C)(O)C4)cc(C4CC4)n3)c2)CC(F)(F)C1 [Compound 495, 6-cyclopropyl-N-(3-(3,3-difluoro-1-((4-methyl-4H-1,2,4-triazol-3-yl)methyl)cyclobutyl)phenyl)-4-((3-hydroxy-3-methylazetidin-1-yl)methyl)picolinamide] | 12 | (0.68x) | 17
Cn1cnnc1CC1(c2cccc(NC(=O)c3nc(C(F)(F)F)c[nH]3)c2)COC1 [Compound 123, N-(3-(3-((4-methyl-4H-1,2,4-triazol-3-yl)methyl)oxetan-3-yl)phenyl)-4-(trifluoromethyl)-1H-imidazole-2-carboxamide] | 1800 | (0.77x) | 2300
Cn1cnnc1[C@H](F)C1(c2cccc(NC(=O)c3cc(CN4CC(C)(F)C4)cc(C(F)(F)F)n3)c2)COC1 [Compound 60, (R)-N-(3-(3-(fluoro(4-methyl-4H-1,2,4-triazol-3-yl)methyl)oxetan-3-yl)phenyl)-4-((3-fluoro-3-methylazetidin-1-yl)methyl)-6-(trifluoromethyl)picolinamide] | 330 | (2.5x) | 130
C[C@@H](c1cc(C(=O)Nc2cccc(C3([C@H](F)c4nncn4C)COC3)c2)nc(C2CC2)c1)N1CC(C)(F)C1 [Compound 114, 6-cyclopropyl-N-(3-(3-((S)-fluoro(4-methyl-4H-1,2,4-triazol-3-yl)methyl)oxetan-3-yl)phenyl)-4-((S)-1-(3-fluoro-3-methylazetidin-1-yl)ethyl)picolinamide] | 220 | (0.76x) | 290
Cn1cnnc1[C@H](F)[C@@](C)(F)c1cccc(NC(=O)c2cc(CN3CC(C)(F)C3)nc(C3CC3)n2)c1 [Compound 44, 2-cyclopropyl-N-(3-((1S,2S)-1,2-difluoro-1-(4-methyl-4H-1,2,4-triazol-3-yl)propan-2-yl)phenyl)-6-((3-fluoro-3-methylazetidin-1-yl)methyl)pyrimidine-4-carboxamide] | 4900 | (2.1x) | 2300
CC(C)[C@H]1CN(C)CCN1Cc1cc(C(=O)Nc2cccc(C3([C@H](F)c4nncn4C)COC3)c2)nc(C2CC2)c1 [Compound 500, 6-cyclopropyl-N-(3-(3-((S)-fluoro(4-methyl-4H-1,2,4-triazol-3-yl)methyl)oxetan-3-yl)phenyl)-4-(((S)-2-isopropyl-4-methylpiperazin-1-yl)methyl)picolinamide] | 8 | (0.82x) | 9.9
Cn1cnnc1[C@H](F)C1(c2cccc(NC(=O)c3cc(CN4CC(C)(CO)C4)cc(C4CC4)n3)c2)CC(F)(F)C1 [Compound 497, (R)-6-cyclopropyl-N-(3-(3,3-difluoro-1-(fluoro(4-methyl-4H-1,2,4-triazol-3-yl)methyl)cyclobutyl)phenyl)-4-((3-(hydroxymethyl)-3-methylazetidin-1-yl)methyl)picolinamide] | 33 | (0.95x) | 34
Cn1cnnc1[C@H](F)C1(c2cccc(NC(=O)c3cc(CN4CC(C)(F)C4)cc(C4CC4)n3)c2)COC1 [Compound 7, (R)-6-cyclopropyl-N-(3-(3-(fluoro(4-methyl-4H-1,2,4-triazol-3-yl)methyl)oxetan-3-yl)phenyl)-4-((3-fluoro-3-methylazetidin-1-yl)methyl)picolinamide] | 31 | (1.8x) | 17
